# Measurements from patent US20080176851A1, “Method for inhibiting lymphangiogenesis and inflammation” (Shiseido Company, Ltd., priority 2006, published 2008).
# “Also recorded” adds a separate entry of the source.
# Tests used:
# [1] = system: LEC; experiment: Haptotactic LEC migration assay (FluoroBlok inserts); type: cell-based, human; conditions: 10 μM SNAP, 100 nM NS-2028, 3 hours
# Experimental: (§1) Human dermal BVEC and LEC were isolated from neonatal human foreskins by immunomagnetic purification as previously described(18, 19). The lineage-specific differentiation was confirmed by real-time RT-PCR for the lymphatic vascular markers Prox1, LYVE-1 and podoplanin, and for the blood vascukar endothelial markers VEGF receptor-1 and VEGF-C, as well as by immunostains for CD31, Prox1 and podoplanin as described(18, 19). Cells were cultured in endothelial basal medium (Cambrex, Verviers, Belgium) supplemented with 20% fetal bovine serum (Gibco, Paisley, UK), antibiotics, 2 mM L-glutamine, 10 μg/ml hydrocortisone and 2.5×10^−2 mg/ml N-6,2-O-dibutyryl-adenosine 3′,5′-cyclic monophosphate (all from Fluka, Buchs, Switzerland) for up to eleven passages.
# (§2) LEC (1.5×10^3) were seeded into fibronectin-coated 96-well plates as described(19). […] The fluorescence intensity, proportional to the number of viable cells, was measured using a Spectra Max GEMINI EM (Bucher Biotech AG, Basel, Switzerland). […] After 3 hours incubation at 37° C., cells on the underside of the inserts were stained with Calcein-AM (Molecular Probes), and the fluorescence intensity, proportional to the number of viable cells, was measured using a Spectra Max GEMINI EM as described(19). […] Representative images were captured and the total length of tube-like structures per area was measured using the IP-LAB software as described(19). […]
# [2] = system: HR-1 hairless mice; experiment: UVB irradiation-induced ear swelling; type: in vivo; conditions: for ear swelling after UVB irradiation vs control-treated: 200 mJ/cm^2 UVB, topical daily 1 mM SNAP or 10 μM NS-2028, days 2-4
# Experimental: (§3) A total of 15 female albino HR-1 hairless mice (Hoshino Laboratory Animal Co., Ltd, Japan) at 8 weeks of age were exposed to a single dose of 200 mJ/cm^2 of UVB irradiation, using ten Toshiba FL-20 SE fluorescent lamps that deliver energy in the UVB (280-340 nm) wave length range with a maximum energy at a wavelength of 305 nm as described(31). Beginning one day before UVB irradiation, the right ears were daily treated topically with 1 mM of SNAP, 10 μM of NS-2028, or 1 mM of SNAP together with 100 μl of 10 μM of NS-2028 in a 50% ethanol solution (n=5 per group) until day 3 after UVB irradiation (5 times total). The left ears were treated with vehicle only. The thickness of the ears was measured every day until day 4 after the UVB irradiation. At 4 days after the UVB irradiation, mouse ears were fixed in cold acetone (AMeX procedure) (30)and were processed for histological analysis of paraffin sections. All animal studies were approved by the Shiseido Life Science Research Center Committee on Research Animal Care.
# [3] = system: LEC; experiment: LEC proliferation assay (5-methylumbelliferylheptanoate fluorescence); type: cell-based, human
# Experimental: as §1
# LEC (1.5×10^3) were seeded into fibronectin-coated 96-well plates as described(19). For proliferation studies, quinduplicate wells were treated or not with different concentrations (0.1 to 10 μM) of the NO donor SNAP (S-Nitroso-N-acetyl-D,L-penicillamine) (Cayman Chemical, Ann Arbor, Mich.) in EBM containing 2% fetal bovine serum. In additional assays, LEC were incubated with 10 μM of SNAP, in the presence or absence of the specific guanylate cyclase inhibitor NS-2028 (100 nM, Cayman Chemical, Ann Arbor, Mich.). After 72 hours, cells were incubated with 5-methylumbelliferylheptanoate as described. The fluorescence intensity, proportional to the number of viable cells, was measured using a Spectra Max GEMINI EM (Bucher Biotech AG, Basel, Switzerland). Haptotatic cell migration was studied as described(19), using 24-well FluoroBlok inserts of 8 μm pore size (Falcon, Franklin Lakes, N.J.). […] After 3 hours incubation at 37° C., cells on the underside of the inserts were stained with Calcein-AM (Molecular Probes), and the fluorescence intensity, proportional to the number of viable cells, was measured using a Spectra Max GEMINI EM as described(19). […] Representative images were captured and the total length of tube-like structures per area was measured using the IP-LAB software as described(19). […]
# [4] = system: lymphatic vessels; experiment: LYVE-1 immunohistochemistry and morphometric analysis of cutaneous lymphatic vessels after UVB; type: in vivo; conditions: UVB-irradiated mice; for enlargement of lymphatic vessels in the dermis (LYVE-1): vs vehicle
# Experimental: (§4) Immunofluorescence analysis was performed on 6-μm cryostat sections of human neonatal foreskins as described, using polyclonal antibodies against LYVE-1 (kindly provided by Dr. David Jackson, Oxford, UK), sGCα1, sGCβ1, eNOS (as described above), or a mouse monoclonal antibody against human podoplanin (20) (clone D2-40, Signet Laboratories, Dedham, Mass.), and corresponding secondary antibodies labeled with AlexaFluor488 or AlexaFluor594 (Molecular Probes, Eugene, Oreg.). Immunohistochemical analysis was performed on 5 μm AMEX-fixed sections as described(30), using antibodies against the macrophage monocyte marker MOMA-2 (BMA Biomedicals AG, Switzerland) or LYVE-1. Routine hematoxylin-eosin staining was also performed. Sections were examined by a Nikon E-600 microscope (Nikon, Melville, N.Y.) and images were captured with a SPOT digital camera (Diagnostic Instruments, Sterling Heights, Mich.). Computer-assisted morphometric analyses of representative LYVE-1-stained sections were performed as described(3).
# as §3
# [5] = system: HR-1 hairless mice; experiment: Histology (hematoxylin-eosin) and MOMA-2 immunohistochemistry of UVB-irradiated ears; type: in vivo; conditions: for MOMA-2 positive cells / macrophage infiltration in the dermis / edema formation in the dermis vs control-treated: day 4 after UVB irradiation
# Experimental: as §4, §3
# [6] = system: LEC; experiment: LEC tube formation assay (type I collagen overlay); type: cell-based, human
# Experimental: as §1, §2
# [7] = system: cGMP production in LEC; experiment: cGMP enzyme immunoassay in siRNA-transfected LEC; type: cell-based, human
# Experimental: siRNA transfection was performed using the Basic Nucleofactor Kit for primary mammalian endothelial cells (Amaxa Biosystems, CITY, Germany). Briefly, after trypsinization, LEC (5×10^5) were resuspended in 100 μl of basic nucleofactor solution. Cells were transfected by electroporation (Nucleofactor II, Amaxa Biosystems), using 1.6 μg of siRNA containing two different double-stranded oligonucleotides for each sGCα2 or sGCα1. The following siRNAs were used: GCα1: CCUUGUACAUAUAUCAGAUtt and GGCACCCUUAAAGAUUUUUtt, GCα2: CGAUACAGCAGACUCUCAAtt and GCUAUGCUCUGAUGUUUCAtt. Control siRNA (Silencer negative control #1 siRNA, Ambion, Cambridgeshire, UK) comprising a 19-bp scrambled sequence with 3′dT overhangs was used as a control; the sequences has no significant sequence homology to any known gene sequence. At 72 hours after tranfection, cells were used for RNA purification or for cGMP assays. Efficient knockdown of mRNA expression was confirmed by TaqMan real-time RT-PCR for sGCα1 and sGCα2 (Applied Biosystems assay ID for sGCα2 was Hs00181365_ml). For cGMP enzyme immunoassays, 1×10^4 siRNA-transfected LEC were seeded into individual wells of a 96-well plate and were incubated with 2% FBS-containing medium. After 24 hours, cells were incubated with several concentrations of SNAP (1-100 μM) for 15 minutes. The cellular cGMP concentrations were measured using an EIA immunoassay kit (Amersham Biosciences, Freiburg, Germany).
# [8] = day 4 after UVB, SNAP in the presence of NS-2028
Molecule,effect on SNAP-induced LEC migration [1],ear swelling after UVB irradiation vs control-treated [2],SNAP-induced augmentation of the UVB response (ear swelling) ([2]; combined topical treatment 1 mM SNAP and 10 μM NS-2028),"effect on SNAP-induced LEC proliferation ([3]; 10 μM SNAP, NS-2028 100 nM, 72 hours)",effect on untreated LEC (proliferation) ([3]; NS-2028 alone),SNAP-induced enlargement of lymphatic vessels ([4]; SNAP with NS-2028),"average size of lymphatic vessels ([4]; day 4, mean±SEM n=5) [μm^2]",enlargement of lymphatic vessels in the dermis (LYVE-1) [4],MOMA-2 positive cells / macrophage infiltration in the dermis [5],edema formation in the dermis vs control-treated [5],"SNAP-induced edema formation [5, 8]","SNAP-induced macrophage infiltration [5, 8]",formation of tube-like structures vs untreated cultures ([6]; 1 μM or 10 μM SNAP),"minimal effective dose for in vitro cord formation by LEC ([6]; type I collagen gel overlay, 6 hours) [µM]","cGMP production in control siRNA- and sGCα2-siRNA transfected LEC ([7]; SNAP 1-100 μM, 15 minutes)","minimal effective dose for increased cGMP production ([7]; control siRNA-transfected and sGCα2 siRNA-transfected LEC, SNAP 15 minutes) [µM]","induction of cGMP production in sGCα1-siRNA transfected LEC ([7]; sGCα1 knockdown, SNAP 1-100 μM)","minimal effective concentration for induction of LEC proliferation ([3]; SNAP 0.1 to 10 μM, 72 hours, EBM 2% fetal bovine serum) [µM]","area occupied by lymphatic vessels ([4]; day 4, mean±SEM n=5) [%]"
"4H-8-Bromo-1,2,4-oxadiazolo(3,4-d)benz(b)(1,4)oxazin-1-one [NS-2028]",blocked; also recorded: strongly inhibited,significantly reduced,completely prevented,significantly blocked,did not have any effect,inhibited,350.1,completely blocked,less MOMA-2 positive cells,decreased,blocked,blocked,–,–,–,–,–,–,–
"CC(=O)NC(C(=O)O)C(C)(C)SN=O (racemic) [SNAP, S-Nitroso-N-acetyl-D,L-penicillamine]",–,significantly enhanced,–,–,–,–,730.7,pronounced enlargement,strongly enhanced,enhanced,–,–,potently promoted,1,dose-dependently induced,1,no induction of cGMP was detected; also recorded: completely prevented,1,2.18
